Assay results reported in US6967205B1, “Compounds with antibacterial and antiparasitic properties” (New Pharma Research Sweden AB, priority 1999, dated 2005).
≈ marks a conversion by molar mass, not a printed value. Where “and” joins values, the source holds several entries; their conditions need not be identical. Equal entries are not always repeated.

How the values were obtained:
[1] = system: E. mitis, E. hagani, E. praecox, E. acervulina, E. maxima, E. necatrix, E. tenella and E. brunetti; test: Prophylactic anticoccidial effect, additional trials in chickens of Habbared X breed (8 Eimeria strains); format: in vivo; conditions: B700 100 ppm; for anticoccidial activity (in words): JA 3 200 ppm in feed from day 8, infected day 11; for increased body weight gain as compared to the Coxistac treated group / total number of oocysts during the treatment compared to Coxistac group: JA 3 200 ppm, Coxistac 100 ppm
Method: In yet another evaluation of the prophylactic anticoccidial effect of the present compounds, additional trials on chickens of Habbared X breed were performed. The same test protocol as the one previously employed for this breed of chickens was used, albeit with the following following modifications: • i) On day 8 after hatch, the chickens received feed containing B700 (100 ppm), JA 3 (200 ppm) or Coxistac (100 ppm); • ii) On day 11 after hatch, the chickens were infected orally by oocysts containing a mixture of 8 mature sporulated strains, namely E. mitis, E. hagani, E. praecox, E. acervulina, E. maxima, E. necatrix, E. tenella and E. brunetti. The results of this evaluation were slightly unexpected.

[2] = system: Bacillus subtilus (ATCC 6633); test: M.I.C. by broth dilution method (NCCLS 1988), gram-positive bacteria; format: cell-based; conditions: ATCC6633, in vitro broth dilution
Method: (§1) The antibacterial activity of the present compounds was investigated by in vitro evaluation of their M.I.C. (Minimum Inhibitory Concentration) values. The evaluation was conducted in complete accordance with the “Broth dilution method”, as outlined by the U.S. National Committee for Clinical Laboratory Standards “NCCLS 1988”.
(§2) Solutions of the present compounds were prepared by dissolving 0.01 g of a test compound in either 10% KOH (aq) or a 10% KOH/DMF mixture, after which sterile, distilled H2O was added up to a total volume of 10 ml, thereby yielding a test compound concentration of 1 000 μg/ml.
(§3) In this evaluation, the antibacterial activity of the present compounds and enrofloxacin as reference compound was tested against seven strains of gram-positive bacteria, namely Bacillus subtilus (ATCC 6633), Bacillus cereus, Streptococcus faecium, Micrococcus Luteus (ATCC 9341), Staph. aureus (ATCC 29737), Staph. epidermidis (ATCC 12228) and Staphylococcus (ATCC 6538).

Bacillus cereus = test: as above; format: cell-based; conditions: in vitro broth dilution
Method: as §1, §2, §3

[3] = system: Staphylococcus (ATCC 6538); test: as above; format: cell-based; conditions: ATCC6538, in vitro broth dilution, read-out: M.I.C. values Staph. (ATCC 6538)
Method: as §1, §2, §3

[4] = system: Staph. aureus (ATCC 29737); test: as above; format: cell-based; conditions: Staphylococcus aureus, ATCC29737, in vitro broth dilution
Method: as §1, §2, §3

[5] = system: Staph. epidermidis (ATCC 12228); test: as above; format: cell-based; conditions: Staphylococcus epidermidis, ATCC12228, in vitro broth dilution
Method: as §1, §2, §3

Streptococcus faecium = test: as above; format: cell-based; conditions: Enterococcus faecium, in vitro broth dilution, read-out: M.I.C. values Streptoc. faecium
Method: as §1, §2, §3

[6] = system: Micrococcus Luteus (ATCC 9341); test: as above; format: cell-based; conditions: ATCC9341, in vitro broth dilution, read-out: M.I.C. values Microc. Luteus
Method: as §1, §2, §3

M. gallisepticum = test: M.I.C. against Mycoplasma in microtitre plates (Tanner and Wu); format: cell-based; conditions: in vitro; for MIC: Mycoplasmoides gallisepticum
Method: The M.I.C. values of the compounds JA 1, JA 3, JA 5, JA 12, JA 42 and JA 43 were determined in vitro against M. gallisepticum. Enrofloxacin, tylosin and oxytetracyclin were used as reference compounds. The tested compounds were all stored and applied as solutions in distilled water. The M.I.C. evaluation was performed in microtitre plates, and the methodology employed was basically that of Tanner and Wu (Avian Disease, 36:714-717 (1992)).

[7] = system: gram-negative bacteria (E. coli, KL. Pnemonia, Bordetella bronchiseptic, Salmonella typhi, Salmonella spp., Proteus spp., Pasterulla Duck, Pasterulla Camel); test: M.I.C. by broth dilution method, gram-negative bacteria; format: cell-based; conditions: eleven gram-negative strains
Method: as §1, §2
In the same manner as above, the M.I.C. values of the present compounds JA 3, JA 5, JA 12, JA 42, JA 73 and enrofloxacin as reference compound were investigated also on gram-negative bacteria. The gram-negative bacteria used were E. coli (ATCC 25922), E. Coli (ATCC 8739), E. Coli (ATCC 10536), E. Coli Pathogenic, KL. Pnemonia (ATCC 10031), Bordetella bronchiseptic (ATCC 4617), Salmonella typhi, Salmonella spp., Proteus spp., Pasterulla Duck and Pasterulla Camel.

T. evansi = test: Antitrypanosomal activity in vivo in white albino rats (Giemsa blood smears); conditions: individual animals
Method: The antitrypanosomal activity of the present compounds was evaluated in vivo on 40 white albino rats. The rats were divided into 4 groups of 10 rats each. The rats were then inoculated intraperitoneally with 10^3 organisms of T. evansi (isolated from blood of naturally infected camels) in accordance with known methodology (see Kolmer, J. A., J. Infect. Dis., 17:78-95 (1915)). The progress of the infection was monitored with the aid of standard Giemsa procedure (see Cruickshank, R., Handbook of Bacteriology, E and S Livingstone Ltd., Edinborough and London, 1961), whereby peripheral blood samples from the rats were examined under microscope. The number of Trypanosoma organisms in every blood sample was calculated and classified as follows (the numbers below are given for fields examined on a microscope slide): • +++=>10 organisms • ++=5-10 organisms • +=1-4 organisms • 0=no organisms detected
On day 1 post infection, each group of rats was subcutaneously injected with a single dose of tested compound in an amount of 50.0 mg/kg body weight. The following drugs were administered:
Group #4: saline solution (control group)

MIC (M. gallisepticum; microtitre plates) [µg/mL] | Structure (SMILES) | MIC [2] [µg/mL] | MIC (Bacillus cereus) [µg/mL] | MIC [3] [µg/mL] | MIC [4] [µg/mL] | MIC [5] [µg/mL] | MIC (Streptococcus faecium) [µg/mL] | MIC [6] [µg/mL] | antibacterial activity against gram-negative bacteria compared to that of enrofloxacin [7] | further results
– | O=C(O)c1cn(C2CC2)c2cc(N3CCN(C(=O)Nc4ccc([N+](=O)[O-])cc4)CC3)c(F)cc2c1=O [B700, 1-cyclopropyl-6-fluoro-7-{4-[(4-nitroanilino)carbonyl]-1-piperazinyl}-4-oxo-1,4-dihydro-3-quinolinecarboxylic acid] | – | – | – | – | – | – | – | – | anticoccidial activity (in words) [1]: significant anticoccidial activity; increased body weight gain as compared to the Coxistac treated group [1]: approximately 10%; total number of oocysts during the treatment compared to Coxistac group [1]: higher than for the group treated with Coxistac
0.06 (≈ 0.167 µM) | CCN1CCN(c2cc3c(cc2F)c(=O)c(C(=O)O)cn3C2CC2)CC1 [Enrofloxacin, enrofloxacin, reference compound] | 0.5 (≈ 1.39 µM) | 0.25 (≈ 0.696 µM) | 0.12 (≈ 0.334 µM) | 0.25 (≈ 0.696 µM) | 0.12 (≈ 0.334 µM) | 1 (≈ 2.78 µM) | 2 (≈ 5.56 µM) | – | –
0.03 (≈ 0.0636 µM) | O=C(O)c1cn(C2CC2)c2cc(N3CCN(S(=O)(=O)c4ccccc4)CC3)c(F)cc2c1=O [JA 1, 1-cyclopropyl-6-fluoro-4-oxo-7-[4-(phenylsulfonyl)-1-piperazinyl]-1,4-dihydro-3-quinolinecarboxylic acid] | 0.06 (≈ 0.127 µM) | 0.06 (≈ 0.127 µM) | 0.06 (≈ 0.127 µM) | 0.12 (≈ 0.255 µM) | 0.06 (≈ 0.127 µM) | 0.5 (≈ 1.06 µM) | 0.5 (≈ 1.06 µM) | – | antibacterial activity against M. gallisepticum (in words) (M. gallisepticum): high antibacterial activity
0.25 (≈ 0.488 µM) | O=C(O)c1cn(C2CC2)c2cc(N3CCN(S(=O)(=O)c4ccc(Cl)s4)CC3)c(F)cc2c1=O [JA 43, 7-{4-[(5-chloro-2-thienyl)sulfonyl]-1-piperazinyl}-1-cyclopropyl-6-fluoro-4-oxo-1,4-dihydro-3-quinolinecarboxylic acid] | 0.25 (≈ 0.488 µM) | 0.12 (≈ 0.234 µM) | 0.03 (≈ 0.0586 µM) | 0.12 (≈ 0.234 µM) | 0.25 (≈ 0.488 µM) | 1 (≈ 1.95 µM) | 1 (≈ 1.95 µM) | – | –
– | O=C(O)c1cn(C2CC2)c2cc(NCC3CCCO3)c(F)cc2c1=O (stereo not shown) [JA 73, 1-cyclopropyl-6-fluoro-4-oxo-7-[(tetrahydro-2-furanylmethyl)amino]-1,4-dihydro-3-quinolinecarboxylic acid] | 0.12 (≈ 0.346 µM) | 0.06 (≈ 0.173 µM) | 0.06 (≈ 0.173 µM) | 0.12 (≈ 0.346 µM) | 0.12 (≈ 0.346 µM) | 0.5 (≈ 1.44 µM) | 2 (≈ 5.77 µM) | roughly equal to that of enrofloxacin | –
– | CC(C)c1ccc(Nc2cc3c(cc2F)c(=O)c(C(=O)O)cn3C2CC2)cc1 [JA 74, 1-cyclopropyl-6-fluoro-7-(4-isopropylanilino)-4-oxo-1,4-dihydro-3-quinolinecarboxylic acid] | 0.12 (≈ 0.315 µM) | 0.12 (≈ 0.315 µM) | 0.12 (≈ 0.315 µM) | 0.12 (≈ 0.315 µM) | 0.12 (≈ 0.315 µM) | 2 (≈ 5.26 µM) | 2 (≈ 5.26 µM) | – | Number of T. evansi per examined field (T. evansi; day 1 post infection (day of dosing), single s.c. dose 50.0 mg/kg): + (+=1-4 organisms); Number of T. evansi per examined field (T. evansi; day 3 post infection, single s.c. dose 50.0 mg/kg on day 1, 50 mg/kg): ++ (++=5-10 organisms); Number of T. evansi per examined field (T. evansi; day 5 post infection, single s.c. dose 50.0 mg/kg on day 1, 50 mg/kg): +++ (+++=>10 organisms) and 0 (0=no organisms detected) (6×) and ++ (++=5-10 organisms) (2×) and + (+=1-4 organisms); Number of T. evansi per examined field (T. evansi; day 7 post infection, single s.c. dose 50.0 mg/kg on day 1, 50 mg/kg): dead and 0 (0=no organisms detected) (9×); Number of T. evansi per examined field (T. evansi; day 9 post infection, single s.c. dose 50.0 mg/kg on day 1, 50 mg/kg): dead and 0 (0=no organisms detected) (9×); Number of T. evansi per examined field (T. evansi; day 11 post infection, single s.c. dose 50.0 mg/kg on day 1, 50 mg/kg): dead and 0 (0=no organisms detected) (9×); Number of T. evansi per examined field (T. evansi; day 13 post infection, single s.c. dose 50.0 mg/kg on day 1, 50 mg/kg): dead and 0 (0=no organisms detected) (9×)
– | CN(C)[C@@H]1C(=O)C(C(N)=O)=C(O)[C@@]2(O)C(=O)C3=C(O)c4c(O)cccc4[C@@](C)(O)[C@H]3[C@H](O)[C@@H]12 [Oxytetracyclin, oxytetracyclin, reference compound] | – | – | – | – | – | – | – | – | M.I.C. values against M. gallisepticum (M. gallisepticum; microtitre plates): 0.12
0.06 (≈ 0.0655 µM) | CC[C@H]1OC(=O)C[C@@H](O)[C@H](C)[C@@H](O[C@@H]2O[C@H](C)[C@@H](O[C@H]3C[C@@](C)(O)[C@@H](O)[C@H](C)O3)[C@H](N(C)C)[C@H]2O)[C@@H](CC=O)C[C@@H](C)C(=O)/C=C/C(C)=C/[C@@H]1CO[C@@H]1O[C@H](C)[C@@H](O)[C@@H](OC)[C@H]1OC [Tylosin, tylosin, reference compound] | – | – | – | – | – | – | – | – | –

Structure (SMILES) | MIC (M. gallisepticum; microtitre plates) [µg/mL] | MIC [2] [µg/mL] | MIC (Bacillus cereus) [µg/mL] | MIC [3] [µg/mL] | MIC [4] [µg/mL] | MIC [5] [µg/mL] | MIC (Streptococcus faecium) [µg/mL] | MIC [6] [µg/mL] | antibacterial activity against gram-negative bacteria compared to that of enrofloxacin [7] | further results
O=C(O)c1cn(C2CC2)c2cc(N3CCN(S(=O)(=O)c4ccc([N+](=O)[O-])cc4)CC3)c(F)cc2c1=O [JA 3, 1-cyclopropyl-6-fluoro-7-{4-[(4-nitrophenyl)sulfonyl]-1-piperazinyl}-4-oxo-1,4-dihydro-3-quinolinecarboxylic acid] | 0.06 (≈ 0.116 µM) | 0.06 (≈ 0.116 µM) | 0.06 (≈ 0.116 µM) | 0.06 (≈ 0.116 µM) | 0.06 (≈ 0.116 µM) | 0.01 (≈ 0.0194 µM) | 0.25 (≈ 0.484 µM) | 1 (≈ 1.94 µM) | roughly equal to that of enrofloxacin | anticoccidial activity (in words) [1]: significant anticoccidial activity; increased body weight gain as compared to the Coxistac treated group [1]: approximately 10%; total number of oocysts during the treatment compared to Coxistac group [1]: higher than for the group treated with Coxistac
O=C(O)c1cn(C2CC2)c2cc(N3CCN(S(=O)(=O)c4ccc5ccccc5c4)CC3)c(F)cc2c1=O [JA 5, 1-cyclopropyl-6-fluoro-7-[4-(2-naphthylsulfonyl)-1-piperazinyl]-4-oxo-1,4-dihydro-3-quinolinecarboxylic acid] | 0.12 (≈ 0.23 µM) | 0.008 (≈ 0.0153 µM) | 0.03 (≈ 0.0575 µM) | 0.06 (≈ 0.115 µM) | 0.06 (≈ 0.115 µM) | 0.01 (≈ 0.0192 µM) | 0.12 (≈ 0.23 µM) | 0.5 (≈ 0.959 µM) | roughly equal to that of enrofloxacin | –
